According to US12673947B2 (Cytosinlab Therapeutics Co., Ltd., priority 2020, dated 2026):

How the values were obtained:
[1] = biological target: T1, FLT3 (Homo sapiens, UniProt P36888); experiment: FLT3 kinase in vitro inhibitory activity experiment (Caliper mobility shift, conversion rate); format: biochemical; settings: IC50 class, read-out: Enzyme activity FLT3
T1 construct: purchased Carna 08-145
T1 sequence (P36888 27-993): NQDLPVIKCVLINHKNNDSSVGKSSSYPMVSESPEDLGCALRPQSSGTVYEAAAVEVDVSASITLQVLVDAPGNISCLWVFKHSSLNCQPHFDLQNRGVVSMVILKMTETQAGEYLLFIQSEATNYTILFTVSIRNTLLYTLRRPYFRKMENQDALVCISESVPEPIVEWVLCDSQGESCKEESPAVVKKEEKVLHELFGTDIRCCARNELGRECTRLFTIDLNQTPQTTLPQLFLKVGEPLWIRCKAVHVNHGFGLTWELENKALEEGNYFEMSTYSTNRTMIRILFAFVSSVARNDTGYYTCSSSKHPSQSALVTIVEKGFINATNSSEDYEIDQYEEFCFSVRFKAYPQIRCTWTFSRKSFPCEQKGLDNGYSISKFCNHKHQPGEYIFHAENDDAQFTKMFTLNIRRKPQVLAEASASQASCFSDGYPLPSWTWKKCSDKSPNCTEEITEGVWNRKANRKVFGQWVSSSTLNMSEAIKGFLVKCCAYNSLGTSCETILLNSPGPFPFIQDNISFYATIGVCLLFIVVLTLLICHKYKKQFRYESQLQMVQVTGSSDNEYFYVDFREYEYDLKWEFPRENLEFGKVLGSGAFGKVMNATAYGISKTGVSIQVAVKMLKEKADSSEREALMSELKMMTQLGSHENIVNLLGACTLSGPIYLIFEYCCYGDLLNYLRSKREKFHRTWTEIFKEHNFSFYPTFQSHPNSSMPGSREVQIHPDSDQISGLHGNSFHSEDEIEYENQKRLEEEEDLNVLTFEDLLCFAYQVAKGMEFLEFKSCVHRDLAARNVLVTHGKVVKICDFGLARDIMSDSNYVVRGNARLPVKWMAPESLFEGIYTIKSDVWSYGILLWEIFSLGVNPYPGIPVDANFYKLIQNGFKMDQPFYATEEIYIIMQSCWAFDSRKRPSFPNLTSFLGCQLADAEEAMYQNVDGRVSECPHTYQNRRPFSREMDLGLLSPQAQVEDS
Description: Biological Test Example 1: FLT3 Kinase In Vitro Inhibitory Activity Experiment
Centrifuge (manufacturer: Eppendorf, model: 5430), microplate reader (manufacturer: Perkin Elmer, model: Caliper EZ Reader II), Echo 550 (manufacturer: Labcyte, model: Echo 550)
1. Kinase Reaction Process
• (1) 1×Kinase buffer was prepared. • (2) Preparation of the serial compound dilutions: the initial stock (the concentration of the tested compound was 1 μM) was diluted by 3-fold into 10 concentrations, and was single-well detected. The compounds were series diluted to solutions of 10 different concentration (100-folds final concentration) in 384-well plates. 250 nl of solution was transferred to each well of 384-well plate by Echo550. 100% DMSO (250 nl) was added to negative control wells and positive control wells respectively. • (3) Kinase solution (2.5 times final concentration) was prepared with 1×Kinase buffer. • (4) 10 μL of kinase solution (2.5 times final concentration) was added to compound wells and positive control wells respectively: 1×Kinase buffer (10 μL) was added to the negative control wells. • (5) The solution was centrifuged at 1000 rpm for 30 seconds, shaked and mixed, and incubated at room temperature for 10 minutes. • (6) The mixed solution of ATP and Kinase substrate 2 (25/15 times final concentration) was prepared with 1×Kinase buffer. • (7) 15 μL of mixed solution ATP and Kinase substrate 2 (25/15 times final concentration) was added to initiated the reaction. • (8) 384 well plate was centrifuged at 1000 rpm for 30 seconds, shaked and mixed, then incubated at room temperature for 30 minutes. • (9) Stop solution (30 μL) was added to stop kinase reaction, and the solution was centrifuged at 1000 rpm for 30 seconds, shaked and mixed. • (10) The conversion rate was read with Caliper EZ Reader II. 2. Data Analysis Formula for Calculation
Wherein: Conversion %_sample is the reading of the sample conversion; Conversion %_min: negative control well.

[2] = tested on: MV4;11 cells; experiment: MV4;11 in vitro inhibition of proliferation assay (CellTiter-Glo, 72 hours); format: cell-based; settings: Homo sapiens, MV4-11, 72 h, IC50 class, read-out: Inhibitory activity of cell proliferation MV4;11
Text: Biological Test Example 2: MV4;11 In Vitro Inhibition of Proliferation Assay
The MV4;11 cell lines were purchased from the cell bank of the Chinese Academy of Sciences, IMDM medium (Gibco, catalog number 12440), fetal bovine serum (Gibco, catalog number 10099141C), penicillin-streptomycin antibiotics (Gibco, catalog number 15140122), DMSO (Sigma, catalog number D2650), Celltiter-Glo kit (CTG) (Promega, catalog number G7573), 384-well clear flat-bottom black cell culture plate (Corning, catalog number 3764), D300e digital dispenser (Tecan, catalog number D300e), SpectraMax i3x microplate reader (MOLECULAR DEVICES, catalog number i3x)
MV4;11 cell was cultivated in IMDM, 10% fetal bovine serum, 1% penicillin-streptomycin antibiotics, and cell density was kept less than 1.0*10E6 cells per ml to ensure that it was always in logarithmic growth phase. Cell viability was greater than 95%.
The compounds to be tested was diluted by 3 times from 10 uM with DMSO to 9 concentrations. 60 nl diluted compound was added to the cell culture plate and three duplicates were set up.
The prepared MV4;11 cell suspension was added to the 384-well plate, and 20 microliters of cell suspension was added per well, i.e., each well contained 2000 MV4;11 cells, of which the final concentration of DMSO was 0.3%. The cell culture plate was placed in 37° C. and incubated in a 5% carbon dioxide incubator for 72 hours.
20 μL of Promega CellTiter-Glo reagent was added to per well, and the plate was incubated at room temperature for 10 minutes when the luminescence signals were stable. SpectraMax i3x microplate reader was used to read signals.
The original data was converted into inhibition rate, and the IC50 value (half inhibition concentration) of the compound was determined by fitting the nonlinear four-parameter curve.

Compound | IC50 [1] [nM] | IC50 [2] [nM]
CCc1nc2c(N)ncc(-c3ccn(C)n3)c2nc1NC1CCOCC1 [Compound 138] | 100 to 500 | > 500
CCc1nc2c(N)ncc(-c3cnn(C4CCN(CC5CCN(C)CC5)CC4)c3)c2nc1NC1CCOCC1 [Compound 158] | ≤ 10 | 10 to 100
CCc1nc2c(N)ncc(-c3cnn(C4CCN(C5CCNCC5)CC4)c3)c2nc1NC1CCOCC1 [Compound 160] | ≤ 10 | 10 to 100
CCc1nc2c(N)ncc(-c3cnn(C4C[C@H]5CC[C@@H](C4)N5C(C)C)c3)c2nc1N[C@@H]1CC[C@H](O)C1 (stereo partly shown) [Compound 166] | ≤ 10 | ≤ 10
CCc1nc2c(N)ncc(-c3cnn(C4C[C@H]5CC[C@@H](C4)N5CC(C)C)c3)c2nc1N[C@@H]1CC[C@H](O)C1 (stereo partly shown) [Compound 167] | ≤ 10 | ≤ 10
CCc1nc2c(N)ncc(-c3cnn(C4C[C@H]5CC[C@@H](C4)N5S(C)(=O)=O)c3)c2nc1N[C@@H]1CC[C@H](O)C1 (stereo partly shown) [Compound 168] | ≤ 10 | ≤ 10
CCc1nc2c(N)ncc(-c3cnn(C4CC(C)(C)N(C)C(C)(C)C4)c3)c2nc1N[C@@H]1CC[C@H](O)C1 [Compound 169, (1S,3R)-3-((5-amino-3-ethyl-8-(1-(1,2,2,6,6-pentamethylpiperidine-4-yl)-1H-pyrazol-4-yl)pyridino[3,4-b]pyrazine-2-yl)amino)cyclopentan-1-ol] | ≤ 10 | ≤ 10
CCc1nc2c(N)ncc(-c3cnn(C4CCN(c5cccnc5)CC4)c3)c2nc1N[C@@H]1CC[C@H](O)C1 [Compound 170] | ≤ 10 | ≤ 10
CCc1nc2c(N)ncc(-c3cnn(C4CCN(c5ccnc(C)c5)CC4)c3)c2nc1N[C@@H]1CC[C@H](O)C1 [Compound 171] | ≤ 10 | ≤ 10
CCc1nc2c(N)ncc(-c3cnn(C4CCN(c5ccncn5)CC4)c3)c2nc1N[C@@H]1CC[C@H](O)C1 [Compound 172] | ≤ 10 | ≤ 10
CCc1nc2c(N)ncc(-c3cnn(C4CCN(c5ccnc(C)n5)CC4)c3)c2nc1N[C@@H]1CC[C@H](O)C1 [Compound 174] | ≤ 10 | ≤ 10
CCc1nc2c(N)ncc(-c3cnn(C4CCN(c5cccnn5)CC4)c3)c2nc1N[C@@H]1CC[C@H](O)C1 [Compound 175] | ≤ 10 | ≤ 10
CCc1nc2c(N)ncc(-c3cnn(-c4ccccc4)c3)c2nc1N[C@@H]1CC[C@H](O)C1 [Compound 176] | ≤ 10 | 10 to 100
CCc1nc2c(N)ncc(-c3cnn(-c4ccc(C)nc4)c3)c2nc1N[C@@H]1CC[C@H](O)C1 [Compound 177, (1S,3R)-3-((5-amino-3-ethyl-8-(1-(6-methylpyridin-3-yl)-1H-pyrazol-4-yl)pyridino[3,4-b]pyrazin-2-yl)amino)cyclopentan-1-ol] | ≤ 10 | ≤ 10

Now from value to molecule:

IC50 [1] [nM] | IC50 [2] [nM] | Compound
≤ 10 | 100 to 500 | CCc1nc2c(N)ncc(-c3ccc(N4CCC(N5CCN(C)CC5)CC4)c(OC)c3)c2nc1N[C@H]1CC[C@H](O)C1 [Compound 69]
≤ 10 | ≤ 10 | CCc1nc2c(N)ncc(-c3ccc(N4CCC(N5CCN(C)CC5)CC4)c(OC)c3)c2nc1N[C@@H]1CC[C@@H](O)C1 [Compound 70]
≤ 10 | 10 to 100 | CCc1nc2c(N)ncc(-c3ccc(N4CCC(N5CCN(C)CC5)CC4)c(OC)c3)c2nc1N[C@H]1CC[C@@H](O)C1 [Compound 71]
≤ 10 | ≤ 10 | CCc1nc2c(N)ncc(-c3ccc(N4CCC(N5CCN(C)CC5)CC4)c(OC)c3)c2nc1N[C@@H]1CC[C@H](O)C1 [Compound 72]
≤ 10 | 10 to 100 | CCc1nc2c(N)ncc(-c3ccc(N4CCC(N5CCN(C)CC5)CC4)c(OC)c3)c2nc1NC(C)C [Compound 77]
≤ 10 | 10 to 100 | CCc1nc2c(N)ncc(-c3ccc(N4CCC(N5CCN(C)CC5)CC4)c(OC)c3)c2nc1NC1CCCC1O (stereo not shown) [Compound 78]
≤ 10 | 10 to 100 | CCc1nc2c(N)ncc(-c3ccc(N4CCC(N5CCN(C)CC5)CC4)c(OC)c3)c2nc1NC1CCOC1 (stereo not shown) [Compound 79]
≤ 10 | 10 to 100 | CCc1nc2c(N)ncc(-c3ccc(N4CCC(N5CCN(C)CC5)CC4)c(OC)c3)c2nc1NC1CCCOC1 (stereo not shown) [Compound 83]
≤ 10 | 10 to 100 | CCc1nc2c(N)ncc(-c3ccc(N4CCC(N5CCN(C)CC5)CC4)c(OC)c3)c2nc1NCC1CCOCC1 [Compound 85]
≤ 10 | 10 to 100 | CCc1nc2c(N)ncc(-c3ccc(N4CCC(N5CCN(C)CC5)CC4)c(OC)c3)c2nc1NC1CCCC1 [Compound 92]
≤ 10 | 10 to 100 | [2H]C([2H])([2H])N1CCN(C2CCN(c3ccc(-c4cnc(N)c5nc(CC)c(NC6CCOCC6)nc45)cc3OC)CC2)CC1 [Compound 121]
≤ 10 | 10 to 100 | CCc1nc2c(N)ncc(-c3cnn(C4CCN(C5CCN(C)CC5)CC4)c3)c2nc1NC1CCC(O)C1 (stereo not shown) [Compound 134, 3-((5-amino-3-ethyl-8-(1-(1′-methyl-[1,4′-bipiperidine]-4-yl)-1H-pyrazol-4-yl)pyridino[3,4-b]pyrazine-2-yl)amino)cyclopentan-1-ol]
≤ 10 | 10 to 100 | CCc1nc2c(N)ncc(-c3cnn(C4CCN(C5CCN(C)CC5)CC4)c3)c2nc1NC1CCOCC1 [Compound 135]
≤ 10 | 10 to 100 | CCc1nc2c(N)ncc(-c3cnn(C4CCN(C)CC4)c3)c2nc1NC1CCOCC1 [Compound 136]
≤ 10 | 10 to 100 | CCc1nc2c(N)ncc(-c3ccc(N4CCC(N5CCN(C)CC5)CC4)c(OC(F)F)c3)c2nc1NC1CCOCC1 [Compound 139]
≤ 10 | 10 to 100 | CCc1nc2c(N)ncc(-c3cnn(CC4CCN(C5CCN(C)CC5)CC4)c3)c2nc1NC1CCOCC1 [Compound 155]
≤ 10 | 10 to 100 | CCc1nc2c(N)ncc(-c3cnn(C4CCN(CCO)CC4)c3)c2nc1NC1CCOCC1 [Compound 156]
≤ 10 | 10 to 100 | CCc1nc2c(N)ncc(-c3cnn(C4CCN(CC5CCNCC5)CC4)c3)c2nc1NC1CCOCC1 [Compound 157]
